Values joined by “and” are separate entries in the source; they are usually repeats but may differ in a detail not shown here. Equal entries are not always repeated. Positions of bridges follow the written chain, without caps; N, C: chain ends. Non-standard residues stand in square brackets, D forms with d. Residues, ends and D or L forms follow the SMILES beside them. Triazole bridges read from a SMILES are 1,4-linked. Lys(N3) = [N-]=[N+]=NCCCC[C@H](N)C(=O)O; Pra = C#CC[C@H](N)C(=O)O
Key:
[1] = test system: S. typhimurium strain TA100; format: cell-based; settings: 12.5 µM, TA100 without S9, 37 °C, 5 days, duplicate; MR ≥2 = mutagenic
Method: The fluctuation Ames test was performed according to the manufacturer’s protocol provided for the Muta-ChromoPlate Bacterial Strain Kit (EBPI, Canada) and according to OECD Guideline 471 (OECD Guidelines for the Testing of Chemicals, Section 4, Test No. 471: Bacterial Reverse Mutation Test). S. typhimurium strain TA100 was used to assess the bacterial reverse mutation from amino acid (histidine) auxotrophy to prototrophy after exposure to mutagens. The overnight TA100 cultures were exposed to each peptide at a 12.5-µM concentration in the presence of bromocresol purple and then dispensed into 96-well microtiter plates. The plates were incubated at 37 °C for 5 days. After this period, the number of positive colonies was counted and statistically compared with the number of positive colonies in the blank wells to identify the spontaneous mutation rate. The negative control was distilled water, while the positive control was sodium azide for TA100 without S9. All experiments were conducted in duplicate. The results were expressed as the mutagenicity ratio (MR) and were obtained by dividing the number of reverse mutation colonies by the spontaneous mutation rate. When the MR was ≥2, the sample was judged to be mutagenic.

[2] = ANTS/DPX leakage, fungal membrane-like LUVs; settings: for liposome leakage (ANTS release), fungal membrane-like LUVs: peptide 20 μM, PE/PC/PI/ergosterol LUVs 0.1 mM lipid, PBS pH 7.2, 10 min, fluorescence 385/512 nm; for leakage activity against liposomes mimicking the fungal membrane: PE/PC/PI/ergosterol LUVs, concentration not given
Method: ANTS/DPX-entrapped large unilamellar vesicles (LUVs) composed of PE/PC/PI/Ergosterol (5:4:1:2, w/w/w/w) and Chol/DOPC (70:30, ratio in moles) were prepared by the extrusion method as previously described in [28]. First, the lipid films were prepared by dissolving lipids in the proper ratio in chloroform to have a final concentration of 0.1 mM and then dried under a nitrogen gas stream. The probes of ANTS (12.5 mM) and DPX (45 mM) dissolved in water were added to the lipid films, and the mixture was freeze-dried overnight. The lipid films with encapsulated ANTS and DPX were hydrated with a PBS 1× buffer (pH = 7.2), vortexed for 1 h, freeze-thawed 6 times and extruded 10 times through 0.1-μm pore size polycarbonate filters to obtain the LUVs. The LUVs with entrapped ANTS and DPX were separated from the free ANTS and DPX by gel filtration chromatography on a Sephadex G-50 column (1.5 × 10 cm). The assay was based on the measurement of dequenching of ANTS by DPX when the LUVs were incubated with peptide concentrations of 5, 10, 15, 20, 30 and 50 μM. The increase in ANT fluorescence was recorded at an excitation fluorescence at 385 nm (slit width: 5 nm) and a fluorescence emission at 512 nm (slit width: 5 nm) for 10 min after the addition of the peptide. The destruction of all LUVs and the complete release of ANTs were obtained after treatment with 10% Triton-X. The percentage of liposome leakage was calculated as %leakage = (Fi − F0)/(Ft − F0), where F0 represents the fluorescence of the intact LUVs before the addition of the peptide and Fi and Ft are the intensities of the fluorescence achieved after peptide and Triton-X treatment, respectively.

[3] = Critical aggregation concentration with Nile red; format: physicochemical; settings: aqueous solution, Nile red 500 nM, 1 h, peptide 1-200 μM, emission maximum fitted with Boltzmann sigmoid, triplicate
Method: The peptide aggregation in the aqueous solution was monitored using Nile red as a dye probe. Nile red has poor solubility in water, and it has a large tendency to move in a hydrophobic environment as aggregates, showing a blue shift. First, the stock solutions of the peptides were prepared by dissolving them in ethanol, and then different aliquots were taken to prepare the peptide solutions at different concentrations (1, 5, 10, 15, 20, 30, 50, 100 and 200 μM). The ethanol was evaporated under a nitrogen gas stream and then dissolved with sterile water (1.5 mL), sonicated for 15 min and freeze-dried. Then, each peptide solution was hydrated with Nile red solution (C = 500 nM) in the dark place for 1 h before measurement. The emission spectra of Nile red were measured between 570 and 700 nm at a slit width of 5 nm using an excitation wavelength of 550 nm and a 10-nm slit width. The data were repeated in triplicate and analyzed by plotting the maximum emission fluorescence corresponding wavelength (y) as a function of the peptide concentration (x) and fitting with the sigmoidal Boltzmann equation: y=A1−A2/1+e^(x−x0/Δx)+A2
In the equation, A1 and A2 indicate the upper and lower limits of the sigmoid, respectively, x0 is the inflection point of the sigmoid and Δx is the parameter which represents the steepness of the function. The sigmoidal plot allows for calculating the CAC value at x0.

C. albicans cells = assay: Zeta potential of fungal cells by dynamic light scattering; format: cell-based; design: Calculated Zeta Potential: unit not given here; settings: for Experimental Zeta Potential (ς): C. albicans cells after peptide 25 μM, PBS 0.001×, electrophoretic light scattering; for Calculated Zeta Potential: theoretical: charge of the peptide added to the zeta potential of the C. albicans cells
Method: The zeta potential of the fungal cells was recorded in a suspension (0.5 × 10^6 cells/mL) using the electrophoretic light scattering technique on a Zetasizer Nano ZS analyzer. Before the peptide treatment, the cells were suspended using a 0.05% trypsin solution in 0.53 mM EDTA. The concentration of the suspended cells in a buffered phosphate saline (PBS, 1.7 mM KH2PO4, 5.2 mM Na2HPO4 and 150 mM NaCl) was determined on a hemocytometer. The measurements were performed by diluting the cells with PBS 0.001× and treating them with the peptide at a concentration of 25 μM.

C. albicans ATCC 90028 = format: cell-based; settings: ATCC 90028, 24 h
Method: C. albicans ATCC 90028, C. auris DSM 21092, C. glabrata DSM 11226, C. tropicalis DSM11951 and C. parapsilosis DSM 4874 grown on YPD Agar (1% w/v yeast extract, 2% w/v peptone, 2% w/v glucose, 1.5% Agar) were cultured in Tryptone soya broth supplemented with 0.1% glucose for 16–18 h at 37 °C, washed twice using sterile phosphate-buffered saline (PBS) and standardized to […] as required for the experiments. RPMI1640 medium (Thermo Fisher Scientific, Waltham, MA, USA) buffered to a pH of 7.0 with 0.165 M MOPS was used for growing the biofilms of all Candida species.
The antifungal activity of peptides against all five Candida species was determined according to CLSI-M27-A3 [33], as reported previously. Briefly, the compounds were tested at concentrations ranging from […] to 50 μM, and the organism suspensions were adjusted to an inoculum of 10^6 cell/mL at OD 590 nm in RPMI 1640, added to the 96-well plate and incubated at 37 °C for 24 h. The minimum inhibitory concentration (MIC) values were determined as the lowest concentration inhibiting fungal growth at 590 nm using a microplate reader (Synergy™ H4; BioTek Instruments, Inc., Winooski, VT, USA). […] The MFC was the lowest concentration that yielded no colony growth on the agar. The MFC/MIC ratio was calculated to determine whether the substance had fungistatic (MFC/MIC ≥ 4) or fungicidal (MFC/MIC < 4) activity.

CC(C)C[C@H](NC(=O)[C@@H]1CCCCn2cc(nn2)C[C@H](NC(=O)[C@H](CCCCN)NC(=O)[C@H](CO)NC(=O)[C@H](Cc2ccccc2)NC(=O)[C@H](Cc2c[nH]c3ccccc23)NC(=O)[C@@H]2CCCN2C(=O)[C@@H](NC(=O)[C@@H](N)Cc2ccccc2)C(C)C)C(=O)N[C@H](CC(C)C)C(=O)NCC(=O)N[C@@H](CCCNC(=N)N)C(=O)N1)C(N)=O [compound 7] (H-FVPWFSK[Pra][dL]GR[Lys(N3)]L-NH2; triazole 8-12; N-terminus assumed)
mutagenicity ratio (MR) [1]: < 2
liposome leakage (ANTS release), fungal membrane-like LUVs [2]: lower ANTS release
critical aggregation concentration (CAC) [3]: 45.4 ± 0.8 µM
Experimental Zeta Potential (ς) (C. albicans cells): −4.5 ± 1.6 mV
Calculated Zeta Potential (C. albicans cells): −3.2 ± 0.5

CC[C@H](C)[C@H](NC(=O)[C@H](CCCNC(=N)N)NC(=O)[C@@H]1CCC(=O)NCCCC[C@H](NC(=O)[C@H](Cc2ccccc2)NC(=O)[C@H](Cc2c[nH]c3ccccc23)NC(=O)[C@@H]2CCCN2C(=O)[C@@H](NC(=O)[C@@H](N)Cc2ccccc2)C(C)C)C(=O)N[C@@H](CCCCN)C(=O)N[C@@H](Cc2ccccc2)C(=O)N[C@H](CC(C)C)C(=O)N1)C(=O)N[C@@H](CC(C)C)C(N)=O [compound 3] (H-FVPWFKKF[dL]ERIL-NH2; lactam 6-10; N-terminus assumed)
mutagenicity ratio (MR) [1]: < 2
leakage activity against liposomes mimicking the fungal membrane [2]: ~30%
liposome leakage (ANTS release), fungal membrane-like LUVs [2]: ~ 30%
critical aggregation concentration (CAC) [3]: 17.3 ± 0.9 µM
Experimental Zeta Potential (ς) (C. albicans cells): 1.6 ± 0.3 mV
Calculated Zeta Potential (C. albicans cells): −3.2 ± 0.5

CC[C@H](C)[C@H](NC(=O)[C@H](CCCNC(=N)N)NC(=O)[C@@H]1CCCCNC(=O)CC[C@H](NC(=O)[C@H](Cc2ccccc2)NC(=O)[C@H](Cc2c[nH]c3ccccc23)NC(=O)[C@@H]2CCCN2C(=O)[C@@H](NC(=O)[C@@H](N)Cc2ccccc2)C(C)C)C(=O)N[C@@H](CCCCN)C(=O)N[C@@H](Cc2ccccc2)C(=O)N[C@H](CC(C)C)C(=O)N1)C(=O)N[C@@H](CC(C)C)C(N)=O [compound 15] (H-FVPWFEKF[dL]KRIL-NH2; lactam 6-10; N-terminus assumed)
mutagenicity ratio (MR) [1]: < 2
leakage activity against liposomes mimicking the fungal membrane [2]: less than 20%
liposome leakage (ANTS release), fungal membrane-like LUVs [2]: lower ANTS release
critical aggregation concentration (CAC) [3]: 17 µM and 17.8 ± 0.9 µM
MFC, C. albicans ATCC 90028 (C. albicans ATCC 90028): > 50 µM
Experimental Zeta Potential (ς) (C. albicans cells): 13.5 ± 3.4 mV
Calculated Zeta Potential (C. albicans cells): −3.2 ± 0.5

CC[C@H](C)[C@H](NC(=O)[C@H](CCCNC(=N)N)NC(=O)[C@@H]1CSSC[C@H](NC(=O)[C@H](Cc2ccccc2)NC(=O)[C@H](Cc2c[nH]c3ccccc23)NC(=O)[C@@H]2CCCN2C(=O)[C@@H](NC(=O)[C@@H](N)Cc2ccccc2)C(C)C)C(=O)N[C@@H](CCCCN)C(=O)N[C@@H](Cc2ccccc2)C(=O)N[C@H](CC(C)C)C(=O)N1)C(=O)N[C@@H](CC(C)C)C(N)=O [compound 16] (H-FVPWFCKF[dL]CRIL-NH2; disulfide 6-10; N-terminus assumed)
mutagenicity ratio (MR) [1]: < 2
liposome leakage (ANTS release), fungal membrane-like LUVs [2]: lower ANTS release
critical aggregation concentration (CAC) [3]: 42.9 ± 0.7 µM
MFC, C. albicans ATCC 90028 (C. albicans ATCC 90028): >50 µM
Experimental Zeta Potential (ς) (C. albicans cells): −6.5 ± 0.2 mV
Calculated Zeta Potential (C. albicans cells): −3.2 ± 0.5
